Data as given in PMC6556873, “Rapid Covalent-Probe Discovery by Electrophile-Fragment Screening” (Journal of the American Chemical Society, 2019).
Read-outs that look alike come from different tables or passages of the source. Blank lines part the entries; values can stand above or below the molecule they belong to.

Assays:
[1] = target: T1, BSA (Bos taurus, UniProt P02769); parameters: Intact protein LC/MS covalent labelling, fragments in pools of five, 200 uM each, 4 °C; settings: 24 h, 4 °C, pool of five; 200 µM; covalent
T1 construct: gene ALB
T1 sequence (P02769 whole entry, the tested form may be a part): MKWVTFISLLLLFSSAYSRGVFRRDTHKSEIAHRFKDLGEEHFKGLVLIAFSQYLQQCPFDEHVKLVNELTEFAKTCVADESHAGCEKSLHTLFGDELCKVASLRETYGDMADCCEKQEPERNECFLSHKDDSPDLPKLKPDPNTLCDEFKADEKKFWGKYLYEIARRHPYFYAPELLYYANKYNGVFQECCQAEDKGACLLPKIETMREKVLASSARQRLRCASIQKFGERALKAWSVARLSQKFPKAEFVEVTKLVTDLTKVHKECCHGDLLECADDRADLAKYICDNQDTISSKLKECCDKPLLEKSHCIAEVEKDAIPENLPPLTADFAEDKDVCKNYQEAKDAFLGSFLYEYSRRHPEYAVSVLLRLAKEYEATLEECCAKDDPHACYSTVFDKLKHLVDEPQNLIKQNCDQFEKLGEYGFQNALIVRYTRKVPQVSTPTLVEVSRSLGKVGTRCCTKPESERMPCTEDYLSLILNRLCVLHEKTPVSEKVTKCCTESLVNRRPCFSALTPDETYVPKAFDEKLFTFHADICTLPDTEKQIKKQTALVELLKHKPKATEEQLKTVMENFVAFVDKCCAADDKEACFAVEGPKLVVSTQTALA
Experimental: (§1) Incubations were performed at 200 μM for each compound and 2 μM of protein (10 μM for BSA) for 24 h at 4 °C with moderate shaking. Incubation buffers varied among proteins (PBS pH 7.4 for QSOX1 and BSA; 10 mM HEPES pH 7.5, 0.3 M NaCl, 0.5 mM TCEP for PCAF, UPS8, and NUDT7; […]; 10 mM Na2HPO4 pH 7.5 100 mM NaCl 5 mM β-mercaptoethanol for NV3CP; 20 mM Na phosphate pH 7.5 for NNMT; […]. The reaction was stopped by quenching with formic acid, 0.4% final concentration. Each protein was incubated with the electrophilic library in pools of five compounds per well. The pool’s composition maximized the difference in mass between fragments in the same well. Incubations were performed with each fragment at 200 μM, for 24 h at 4 °C, to allow the screening of proteins that are not stable for long time periods at higher temperatures. Following incubation, we used intact protein [compound left out] chromatography/mass spectrometry (LC/MS) to identify the fragments and quantify their labeling (Figure 3A). […] There was good agreement between the percent of labeling of NUDT7 by 100 random individual compounds and that obtained in pools of five (R^2=0.78; Figure S6 and Data set 2 in the Supporting Information).

[2] = target: T2, NUDT7 (Homo sapiens, UniProt P0C024); parameters: Intact protein LC/MS covalent labelling, fragments in pools of five, 200 uM each, 4 °C; settings: 24 h, 4 °C, pool of five; 200 µM; covalent
T2 construct: residues 14-235, E. coli, pNIC28-Bsa4, N-terminal His6 tag removed by TEV, construct 26672 Da
T2 sequence (P0C024 14-235): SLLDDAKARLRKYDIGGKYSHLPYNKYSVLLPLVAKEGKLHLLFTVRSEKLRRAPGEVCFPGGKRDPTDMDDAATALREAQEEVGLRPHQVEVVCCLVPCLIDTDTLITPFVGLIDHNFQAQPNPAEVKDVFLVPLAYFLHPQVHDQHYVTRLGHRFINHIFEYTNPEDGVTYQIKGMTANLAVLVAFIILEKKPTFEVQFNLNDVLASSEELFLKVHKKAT
Experimental: as §1

[3] = target: T3, OTUB2 (OTUB2A) (Homo sapiens, UniProt Q96DC9); parameters: Intact protein LC/MS covalent labelling, fragments in pools of five, 200 uM each, 4 °C; settings: 24 h, 4 °C, pool of five; 200 µM; covalent
T3 construct: full length residues 1-234, E. coli BL21(DE3)-R3, His tag removed by TEV, construct 27312 Da
T3 sequence (Q96DC9 1-234): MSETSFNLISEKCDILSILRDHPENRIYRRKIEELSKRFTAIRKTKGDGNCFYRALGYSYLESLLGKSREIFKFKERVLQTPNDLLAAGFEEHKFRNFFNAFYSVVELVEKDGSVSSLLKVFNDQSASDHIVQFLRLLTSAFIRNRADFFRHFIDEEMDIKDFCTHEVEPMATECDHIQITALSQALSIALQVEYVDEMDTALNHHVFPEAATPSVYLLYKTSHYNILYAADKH
Experimental: as §1

[4] = target: T4, PCAF (Homo sapiens, UniProt Q92831); parameters: Intact protein LC/MS covalent labelling, fragments in pools of five, 200 uM each, 4 °C; settings: 24 h, 4 °C, pool of five; 200 µM; covalent
T4 construct: gene KAT2B
T4 sequence (Q92831 whole entry, the tested form may be a part): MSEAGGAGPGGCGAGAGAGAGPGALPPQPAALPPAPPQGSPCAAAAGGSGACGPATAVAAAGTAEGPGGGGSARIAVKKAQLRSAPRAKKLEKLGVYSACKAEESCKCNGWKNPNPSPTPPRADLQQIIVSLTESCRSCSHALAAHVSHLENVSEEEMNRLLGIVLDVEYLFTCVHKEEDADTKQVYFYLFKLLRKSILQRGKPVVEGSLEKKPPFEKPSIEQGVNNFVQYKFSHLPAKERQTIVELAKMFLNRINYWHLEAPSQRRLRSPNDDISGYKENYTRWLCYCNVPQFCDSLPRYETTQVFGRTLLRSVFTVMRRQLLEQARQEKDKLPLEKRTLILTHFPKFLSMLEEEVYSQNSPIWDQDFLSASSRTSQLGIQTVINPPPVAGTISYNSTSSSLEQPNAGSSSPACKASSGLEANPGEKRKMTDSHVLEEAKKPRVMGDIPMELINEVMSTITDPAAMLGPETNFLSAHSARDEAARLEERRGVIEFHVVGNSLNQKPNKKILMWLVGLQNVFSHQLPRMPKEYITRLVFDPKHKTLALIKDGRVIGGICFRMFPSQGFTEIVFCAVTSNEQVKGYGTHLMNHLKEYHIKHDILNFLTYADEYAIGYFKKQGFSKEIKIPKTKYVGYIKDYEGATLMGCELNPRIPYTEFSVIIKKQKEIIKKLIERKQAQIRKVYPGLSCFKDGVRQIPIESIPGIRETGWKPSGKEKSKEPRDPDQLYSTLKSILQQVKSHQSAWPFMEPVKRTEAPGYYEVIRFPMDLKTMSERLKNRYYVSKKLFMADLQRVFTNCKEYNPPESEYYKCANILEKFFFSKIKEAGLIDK
Experimental: as §1

[5] = in vitro; parameters: species or system CCD841, HEK293; settings: human, hb2 cells, read-out: HB-2 Cells Viability (%)
[6] = in vitro; parameters: species or system HB2, HEK293; settings: human, ccd841 cells
[7] = in vitro; parameters: species or system HB2, CCD841; settings: human, hek293 cells

Structure (SMILES): O=C(CCl)Nc1nnc(C2CC2)o1 [PCM-0102187]
BSA [1]: 0
NUDT7 [2]: 0
OTUB2 [3]: 0
PCAF [4]: 0
viability at 48 h, 10 µM [5]: 106%
viability at 48 h, 10 µM [6]: 114%
viability at 48 h, 10 µM [7]: 97.2%

Structure (SMILES): C=CC(=O)Nc1ccc(Br)cc1 [PCM-0102191]
BSA [1]: 0
NUDT7 [2]: 0.09
OTUB2 [3]: 0
PCAF [4]: 0
viability at 48 h, 10 µM [5]: 91.3%
viability at 48 h, 10 µM [6]: 88.9%
viability at 48 h, 10 µM [7]: 65.6%

Structure (SMILES): O=C(CCl)NC(=O)c1ccco1 [PCM-0102195]
BSA [1]: 0
NUDT7 [2]: 0
OTUB2 [3]: 0
PCAF [4]: 0
viability at 48 h, 10 µM [5]: 98%
viability at 48 h, 10 µM [6]: 109%
viability at 48 h, 10 µM [7]: 87.3%

Structure (SMILES): Cc1cc(NC(=O)CCl)on1 [PCM-0102197]
BSA [1]: 0
NUDT7 [2]: 0
OTUB2 [3]: 0
PCAF [4]: 0
viability at 48 h, 10 µM [5]: 74.3%
viability at 48 h, 10 µM [6]: 87.9%
viability at 48 h, 10 µM [7]: 68.5%

Structure (SMILES): COC(=O)c1c(NC(=O)CCl)sc2c1CCCCC2 [PCM-0102200]
BSA [1]: 0
NUDT7 [2]: 0.11
OTUB2 [3]: 0
PCAF [4]: 0
viability at 48 h, 10 µM [5]: 49.5%
viability at 48 h, 10 µM [6]: 80.8%
viability at 48 h, 10 µM [7]: 21.8%

Structure (SMILES): Cc1sc(NC(=O)CCl)c(C#N)c1C [PCM-0102202]
BSA [1]: 0
NUDT7 [2]: 0
OTUB2 [3]: 0
PCAF [4]: 0
viability at 48 h, 10 µM [5]: 32.8%
viability at 48 h, 10 µM [6]: 55.2%
viability at 48 h, 10 µM [7]: 14.4%

The next lines start with results.

BSA [1]: 0
NUDT7 [2]: 0.09
OTUB2 [3]: 0.12
PCAF [4]: 0
Structure (SMILES): O=C(CCl)N1CCCc2cc([N+](=O)[O-])ccc21 [PCM-0102188]
viability at 48 h, 10 µM [5]: 19.6%
viability at 48 h, 10 µM [6]: 32.3%
viability at 48 h, 10 µM [7]: 46.6%

BSA [1]: 0
NUDT7 [2]: 0.42
OTUB2 [3]: 0.37
PCAF [4]: 0
Structure (SMILES): CC(NC(=O)CCl)c1cccc(Cl)c1 (centres unmarked) [PCM-0102190]
viability at 48 h, 10 µM [5]: 69.6%
viability at 48 h, 10 µM [6]: 73.2%
viability at 48 h, 10 µM [7]: 49.3%

BSA [1]: 0
NUDT7 [2]: 0
OTUB2 [3]: 0.31
PCAF [4]: 0
Structure (SMILES): O=C(CCl)NCc1ccc(F)cc1 [PCM-0102192]
viability at 48 h, 10 µM [5]: 86.9%
viability at 48 h, 10 µM [6]: 76.1%
viability at 48 h, 10 µM [7]: 77.8%

BSA [1]: 0
NUDT7 [2]: 0
OTUB2 [3]: 0
PCAF [4]: 0
Structure (SMILES): O=C(CCl)N1CCN(S(=O)(=O)c2ccc3c(c2)CCC3)CC1 [PCM-0102193]
viability at 48 h, 10 µM [5]: 2.7%
viability at 48 h, 10 µM [6]: 20.9%
viability at 48 h, 10 µM [7]: 2.8%

BSA [1]: 0
NUDT7 [2]: 0
OTUB2 [3]: 0
PCAF [4]: 0
Structure (SMILES): O=C(CCl)Nc1ccc2c(c1)C(=O)c1ccccc1C2=O [PCM-0102194]
viability at 48 h, 10 µM [5]: 1.4%
viability at 48 h, 10 µM [6]: 13.7%
viability at 48 h, 10 µM [7]: 0.7%

BSA [1]: 0
NUDT7 [2]: 0.2
OTUB2 [3]: 0.14
PCAF [4]: 0
Structure (SMILES): Cc1ccc(NC(=O)CCl)c(Br)c1 [PCM-0102196]
viability at 48 h, 10 µM [5]: 49.2%
viability at 48 h, 10 µM [6]: 87.6%
viability at 48 h, 10 µM [7]: 45.5%

BSA [1]: 0
NUDT7 [2]: 0
OTUB2 [3]: 0
PCAF [4]: 0
Structure (SMILES): O=C(CCl)N1CCN(S(=O)(=O)c2c(F)cccc2F)CC1 [PCM-0102201]
viability at 48 h, 10 µM [5]: 9.5%
viability at 48 h, 10 µM [6]: 57.6%
viability at 48 h, 10 µM [7]: 11.1%

BSA [1]: 0
NUDT7 [2]: 0
OTUB2 [3]: 0
PCAF [4]: 0
Structure (SMILES): NC(=O)C1CCCCN1C(=O)CCl (centres unmarked) [PCM-0102203]
viability at 48 h, 10 µM [5]: 79.7%
viability at 48 h, 10 µM [6]: 75.3%
viability at 48 h, 10 µM [7]: 50.7%
